Patent US20240351996A1, “CDK19-SELECTIVE INHIBITORS, AND METHODS OF USE THEREOF” (CZ BIOHUB SF, LLC, priority 2022, published 2024)
Blank lines part the entries; values can stand above or below the compound they belong to.

What was measured:
CDK8 = CDK8 (Homo sapiens, UniProt P49336); assay: LanthaScreen europium kinase binding assay (FRET displacement), CDK8
Procedure: (§1) FRET Displacement Assay to Measure IC50: The CDK19/CDK8 IC50 values were measured to evaluate activity and to determine CDK19/CDK8 selectivity. The IC50 values of the disclosed compounds was measured using a LanthaScreen™ europium kinase binding assay (ThermoFisher), as described herein.
[…] An aliquot of the cocktail solution (10 μL) was added to each well of a LUMITRAC™ 200:384 flat bottom, non-treated microtiter white plate. The plate was then covered to protect light sensitive reagents and incubated for 30 min at room temperature to equilibrate before addition of any inhibitors.
(§2) A serial dilution of the compounds was titrated into each well using an automated liquid handling Staccato integrated system at the following concentration(s) (Log10 Molar [C]): −4.5, −5.0, −5.5, −6.0, −6.5, −7.0, −7.5, −8.0 so that a complete dose-response could be calculated. A Tecan microplate reader infinite m200 instrument was then used to measure the FRET signal of each individual well using an excitation of 317/20 nm, emission europium of 620/12 nm, and emission kinase tracer of 665/12 nm after a 3 h incubation period at room temperature until steady-state kinetics were achieved.
(§3) Results were performed in duplicate and were repeated a total of 3 independent times before data was normalized to the DMSO control group and IC50 values reported.

CDK19/CycC = CDK19/CycC (Homo sapiens, UniProt Q9BWU1); assay: LanthaScreen europium kinase binding assay (FRET displacement), CDK19; conditions: for CDK19 Selectivity: CDK19/CDK8 selectivity based on IC50 values; for IC50: his-tagged CDK19/CycC 5 nM, tracer 10 nM, 3 h incubation
Chain of CDK19/CycC (Q9BWU1 whole entry): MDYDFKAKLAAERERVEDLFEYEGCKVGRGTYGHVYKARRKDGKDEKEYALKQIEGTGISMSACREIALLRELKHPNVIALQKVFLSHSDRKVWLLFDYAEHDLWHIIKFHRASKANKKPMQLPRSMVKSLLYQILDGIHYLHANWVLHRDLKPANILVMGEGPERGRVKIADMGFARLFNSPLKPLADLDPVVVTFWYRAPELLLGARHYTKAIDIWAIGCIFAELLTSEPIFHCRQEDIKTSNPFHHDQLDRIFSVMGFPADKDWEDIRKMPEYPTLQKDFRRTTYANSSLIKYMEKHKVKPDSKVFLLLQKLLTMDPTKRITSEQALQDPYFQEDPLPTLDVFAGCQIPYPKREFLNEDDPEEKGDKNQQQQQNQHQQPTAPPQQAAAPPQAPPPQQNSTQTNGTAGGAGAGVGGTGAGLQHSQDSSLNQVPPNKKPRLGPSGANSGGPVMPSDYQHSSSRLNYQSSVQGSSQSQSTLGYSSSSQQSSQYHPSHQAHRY
Chain of CDK19/CycC (P24863 whole entry partner): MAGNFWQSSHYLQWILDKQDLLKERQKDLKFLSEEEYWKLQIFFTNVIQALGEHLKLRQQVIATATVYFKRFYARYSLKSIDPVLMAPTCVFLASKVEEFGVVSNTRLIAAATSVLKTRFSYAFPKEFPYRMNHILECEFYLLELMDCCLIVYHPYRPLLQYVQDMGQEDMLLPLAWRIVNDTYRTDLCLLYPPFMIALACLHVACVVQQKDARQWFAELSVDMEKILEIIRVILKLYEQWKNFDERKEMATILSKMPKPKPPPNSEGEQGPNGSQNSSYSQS
Procedure: as §1
To a kinase buffer cocktail solution (i.e., 5× Kinase Buffer A) was added: purified recombinant his-tagged CDK19/CycC protein (5 nM), ATP-competitive kinase inhibitor scaffold kinase tracer Alexa Fluor® 665 (10 nM), biotin anti-his tag antibody (2 nM), LanthaScreen® europium-streptavidin (2 nM). An aliquot of the cocktail solution (10 μL) was added to each well of a LUMITRAC™ 200:384 flat bottom, non-treated microtiter white plate. The plate was then covered to protect light sensitive reagents and incubated for 30 min at room temperature to equilibrate before addition of any inhibitors.
as §2, §3

Chain of CDK8 (P49336 whole entry): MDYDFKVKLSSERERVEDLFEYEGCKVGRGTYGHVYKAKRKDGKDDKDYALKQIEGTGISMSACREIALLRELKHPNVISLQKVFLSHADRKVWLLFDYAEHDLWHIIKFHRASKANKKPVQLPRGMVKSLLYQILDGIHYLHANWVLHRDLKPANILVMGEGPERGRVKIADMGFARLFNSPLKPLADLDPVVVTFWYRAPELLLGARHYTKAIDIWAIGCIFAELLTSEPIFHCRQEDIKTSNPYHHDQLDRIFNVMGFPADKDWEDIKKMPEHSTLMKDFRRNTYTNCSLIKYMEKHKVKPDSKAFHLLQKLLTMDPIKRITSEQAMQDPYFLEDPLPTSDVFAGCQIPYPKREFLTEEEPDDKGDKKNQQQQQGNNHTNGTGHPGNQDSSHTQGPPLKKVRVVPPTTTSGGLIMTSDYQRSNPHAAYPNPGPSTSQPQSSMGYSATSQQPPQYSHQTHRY
Chain of CDK8 (P24863 whole entry partner): as the sequence (P24863 whole entry partner) above

- IC50 (CDK8): 1430 nM
- CDK19 Selectivity (CDK19/CycC): 5.1
- IC50 (CDK19/CycC): 283 nM
Compound: CC(C)Cc1ccc(Nc2ncc(-c3ccc(=O)[nH]c3)cn2)cc1 [Compound A100]

- IC50 (CDK8): 178 nM
- CDK19 Selectivity (CDK19/CycC): 1
- IC50 (CDK19/CycC): 219 nM
Compound: CC(C)Cc1ccc(Nc2ncc(Nc3ccncc3C(=O)NC3CCCC3)cn2)cc1 [Compound A146]

- IC50 (CDK8): 10000 nM
- CDK19 Selectivity (CDK19/CycC): 1
- IC50 (CDK19/CycC): 10000 nM
Compound: CC(C)Cc1ccc(Nc2ncc(-c3cc[nH]c(=O)c3)cn2)cc1 [Compound A141]

- IC50 (CDK8): 75 nM
- CDK19 Selectivity (CDK19/CycC): 1
- IC50 (CDK19/CycC): 76 nM
Compound: CC(C)Cc1ccc(Nc2ncc(Nc3ccncc3NC3CCCC3)cn2)cc1 [Compound A163]

- IC50 (CDK8): 3 nM
- IC50 (CDK19/CycC): ≤ 2.5 nM
Compound: CC(C)Cc1ccc(Nc2ncc(Nc3ccncc3C#N)cn2)cc1 [Compound A149]

- IC50 (CDK8): 64 nM
- CDK19 Selectivity (CDK19/CycC): 1
- IC50 (CDK19/CycC): 67 nM
Compound: CC(C)Cc1ccc(Nc2ncc(Nc3ccncc3OC3CCCC3(C)C)cn2)cc1 (centres unmarked) [Compound A157]

- IC50 (CDK8): 238 nM
- CDK19 Selectivity (CDK19/CycC): 4
- IC50 (CDK19/CycC): 57 nM
Compound: Cc1cnccc1Nc1cnc(Nc2ccc(CC(C)C)cc2C)nc1 [Compound A165]

- IC50 (CDK8): 17 nM
- CDK19 Selectivity (CDK19/CycC): 1
- IC50 (CDK19/CycC): 18 nM
Compound: Cc1cnccc1Nc1cnc(Nc2ccc(C3CCCCC3)cc2)nc1 [Compound A148]

- IC50 (CDK8): 10000 nM
- CDK19 Selectivity (CDK19/CycC): 3
- IC50 (CDK19/CycC): 3000 nM
Compound: CC(C)Cc1ccc(Nc2ncc(Oc3ccncc3)cn2)cc1 [Compound A143]

- IC50 (CDK8): 6.6 nM
- CDK19 Selectivity (CDK19/CycC): 1.8
- IC50 (CDK19/CycC): 3.7 nM
Compound: CC(C)Cc1ccc(Nc2ncc(C(=O)c3ccncc3Cl)cn2)cc1 [Compound A118]

- IC50 (CDK8): 4860 nM
- CDK19 Selectivity (CDK19/CycC): 4.6
- IC50 (CDK19/CycC): 1060 nM
Compound: Cc1cc(C#N)ccc1-c1cnc(Nc2ccc(CC(C)C)cc2)nc1 [Compound A90]

- IC50 (CDK8): 10000 nM
- CDK19 Selectivity (CDK19/CycC): 1.3
- IC50 (CDK19/CycC): 7680 nM
Compound: Cc1ccc(-c2cnc(Nc3ccc(CC(C)C)cc3)nc2)cc1 [Compound A103]

- IC50 (CDK8): 54 nM
- CDK19 Selectivity (CDK19/CycC): 3
- IC50 (CDK19/CycC): 18 nM
Compound: CC(C)Cc1ccc(Nc2ncc(Nc3ccnc(N)c3)cn2)cc1 [Compound A159]

- IC50 (CDK8): 201 nM
- CDK19 Selectivity (CDK19/CycC): 5
- IC50 (CDK19/CycC): 41 nM
Compound: CC(C)Cc1ccc(Nc2ccc(C(=O)c3ccncc3Cl)cn2)cc1 [Compound A123]

The next lines start with the compound.

Compound: Cc1cc(Nc2ncc(Nc3ccncc3)cn2)ccc1F [Compound A41]
- IC50 (CDK8): 8940 nM
- CDK19 Selectivity (CDK19/CycC): 1
- IC50 (CDK19/CycC): 8940 nM

Compound: c1cc(Nc2cnc(Nc3ccc4c(c3)CCCC4)nc2)ccn1 [Compound A37]
- IC50 (CDK8): 83 nM
- CDK19 Selectivity (CDK19/CycC): 2
- IC50 (CDK19/CycC): 41 nM

Compound: CC(C)Cc1ccc(Nc2ccc(-c3ccc(C#N)cc3)cn2)cc1 [Compound A79]
- IC50 (CDK8): 10000 nM
- IC50 (CDK19/CycC): 10000 nM

Compound: c1cc(Nc2ncc(Nc3ccncc3)cn2)cc(C2CC2)c1 [Compound A26]
- IC50 (CDK8): 9030 nM
- CDK19 Selectivity (CDK19/CycC): 1.6
- IC50 (CDK19/CycC): 5690 nM

Compound: CC(C)Cc1ccc(Nc2ccc(-c3ccncc3)cn2)cc1 [Compound A80]
- IC50 (CDK8): 10000 nM
- CDK19 Selectivity (CDK19/CycC): 3
- IC50 (CDK19/CycC): 3330 nM

Compound: O=C(c1ccncc1)c1ccc(Nc2ccc(F)cc2)nc1 [Compound A75]
- IC50 (CDK8): 1160 nM
- CDK19 Selectivity (CDK19/CycC): 3.9
- IC50 (CDK19/CycC): 296 nM

Compound: CCCc1ccc(Nc2ncc(Nc3ccnc4ccccc34)cn2)cc1 [Compound A15]
- IC50 (CDK8): 109 nM
- CDK19 Selectivity (CDK19/CycC): 1.1
- IC50 (CDK19/CycC): 96 nM

Compound: Fc1ccc(Nc2ncc(Nc3ccncc3)cn2)cc1 [Compound A7]
- IC50 (CDK8): 14000 nM
- IC50 (CDK19/CycC): 10000 nM

Compound: Cc1cc(Nc2cnc(Nc3ccc(C4CC4)cc3)nc2)ccn1 [Compound A17]
- IC50 (CDK8): 1160 nM
- CDK19 Selectivity (CDK19/CycC): 2.8
- IC50 (CDK19/CycC): 419 nM

Compound: Cc1cc(Nc2cnc(Nc3ccc(CC(C)C)cc3)nc2)cc(C)n1 [Compound A9]
- IC50 (CDK8): 8260 nM
- CDK19 Selectivity (CDK19/CycC): 4
- IC50 (CDK19/CycC): 2070 nM

Compound: CC(C)Cc1ccc(Nc2ncc(Nc3ccncc3F)cn2)cc1 [Compound A56]
- IC50 (CDK8): 27 nM
- CDK19 Selectivity (CDK19/CycC): ≥11
- IC50 (CDK19/CycC): ≤ 2.5 nM

Compound: COc1cc(Nc2cnc(Nc3ccc(CC(C)C)cc3)nc2)ccn1 [Compound A23]
- IC50 (CDK8): 451 nM
- CDK19 Selectivity (CDK19/CycC): 4.5
- IC50 (CDK19/CycC): 100 nM

Compound: CC(C)Cc1ccc(Nc2ncc(Nc3cccnc3)cn2)cc1 [Compound A52, N2-(4-isobutylphenyl)-N5-(pyridin-3-yl)pyrimidine-2,5-diamine]
- IC50 (CDK8): 3550 nM
- CDK19 Selectivity (CDK19/CycC): 5
- IC50 (CDK19/CycC): 704 nM

Compound: CC(C)Cc1ccc(Nc2ccc(Nc3ccncc3)cn2)cc1 [Compound A85]
- IC50 (CDK8): 268 nM
- CDK19 Selectivity (CDK19/CycC): 3.8
- IC50 (CDK19/CycC): 72 nM

Compound: CC(C)Cc1ccc(Nc2ccc(Oc3ccncc3)cn2)cc1 [Compound A83]
- IC50 (CDK8): 8300 nM
- CDK19 Selectivity (CDK19/CycC): 1
- IC50 (CDK19/CycC): 5900 nM

Compound: CC(C)Cc1ccc(Nc2ncc(C(=O)c3ccncc3C3CC3)cn2)cc1 [Compound A72]
- IC50 (CDK8): 34 nM
- CDK19 Selectivity (CDK19/CycC): ≥14
- IC50 (CDK19/CycC): ≤ 2.5 nM

Compound: CC(C)Cc1cccc(Nc2ncc(Nc3ccnc(C(F)(F)F)c3)cn2)c1 [Compound A35]
- IC50 (CDK8): 10000 nM
- IC50 (CDK19/CycC): 10000 nM

Compound: CC(C)Cc1ccc(Nc2ncc(Nc3ccncc3OC3CCCNC3)cn2)cc1 (centres unmarked) [Compound A55]
- IC50 (CDK8): 44 nM
- CDK19 Selectivity (CDK19/CycC): 1.1
- IC50 (CDK19/CycC): 40 nM

Compound: CC(C)Cc1ccc(Nc2ncc(NC(=O)c3ccncc3)cn2)cc1 [Compound A48, N-(2-((4-isobutylphenyl)amino)pyrimidin-5-yl) isonicotinamide]
- IC50 (CDK8): 8220 nM
- CDK19 Selectivity (CDK19/CycC): 5.3
- IC50 (CDK19/CycC): 1550 nM

Compound: CCCc1ccc(Nc2ncc(Nc3ccncc3)cn2)cc1 [Compound A14]
- IC50 (CDK8): 96 nM
- CDK19 Selectivity (CDK19/CycC): 3.3
- IC50 (CDK19/CycC): 29 nM

Compound: Cc1cnccc1C(=O)c1cnc(Nc2ccc(CC(C)C)cc2)nc1 [Compound A73, (2-((4-isobutylphenyl)amino)pyrimidin-5-yl) (3-methylpyridin-4-yl) methanone]
- IC50 (CDK8): 16 nM
- CDK19 Selectivity (CDK19/CycC): ≥6
- IC50 (CDK19/CycC): ≤ 2.5 nM

Compound: COc1cnccc1Nc1cnc(Nc2ccc(CC(C)C)cc2F)nc1 [Compound A61]
- IC50 (CDK8): 7 nM
- CDK19 Selectivity (CDK19/CycC): 1
- IC50 (CDK19/CycC): 7.6 nM
